Patent US20240382471A1, “GLUCAGON-LIKE PEPTIDE-1 RECEPTOR MODULATORS AND USES THEREOF” (HEPAGENE THERAPEUTICS (HK) LIMITED, priority 2021, published 2024)

Molecular target: GLP1R (Homo sapiens, UniProt P43220)
Assay: GLP1R cAMP assay (HTRF cAMP detection, agonist activity)
Format: cell-based
Parameters: host or cells: Flp-In-293
Details: Flp-In-293-GLP1R cells, 30 min at 37° C., read-out: EC50 (nM) Assay 1
Experimental: GLP1R-mediated agonist activity was determined with a cell-based functional assay utilizing an HTRF (Homogeneous Time-Resolved Fluorescene) cAMP detection kit that measures CAMP levels in the cell. Reagents and equipment used in the assay are listed below, followed by the protocol.
• 1) Cell Line: Flp-In-293-GLP1R (constructed by Pharmaron Beijing Co., Ltd) • 2) Complete Medium: DMEM+10% FBS+1×Penicillin-Streptomycin+200 μg/mL HB • 3) Assay Buffer: 1×HBSS+20 mM HEPES+0.1% BSA+500 μM IBMX
• a) Seed Flpin-293-GLP1R cells at 20,000 cells/well into 384 well assay plate (6007680-50, PE) using complete medium. • b) Prepare 4×compound working solution with assay buffer. • c) Add 5 μL 4×compound working solution into cell plate, incubate 30 min at 37° C. • d) Dilute Eu-cAMP tracer (1/50) with lysis buffer and add 10 μl/well to assay plate. • e) Dilute Ulight-anti-cAMP (1/150) with lysis buffer and add 10 μl/well to assay plate. • f) Incubate 1 h at RT. • g) Read the plate at wavelengths of 665 nm and 615 nm on Envision 2105 plate reader.
• 3.1% Activity is calculated as follow:
% Activity=100−(Signalcmpd−SignalAve_PC)/(SignalAve_VC−SignalAve_PC)×100. • 3.2 Calculate EC50 and Plot effect-dose curve of cmpds:
Y=Bottom+(Top−Bottom)/(1+10^((Log EC50−X)*Hill Slope)) • X: log of agonist concentration; Y: % Activity.

Sequence of GLP1R (P43220 24-463, species assumed): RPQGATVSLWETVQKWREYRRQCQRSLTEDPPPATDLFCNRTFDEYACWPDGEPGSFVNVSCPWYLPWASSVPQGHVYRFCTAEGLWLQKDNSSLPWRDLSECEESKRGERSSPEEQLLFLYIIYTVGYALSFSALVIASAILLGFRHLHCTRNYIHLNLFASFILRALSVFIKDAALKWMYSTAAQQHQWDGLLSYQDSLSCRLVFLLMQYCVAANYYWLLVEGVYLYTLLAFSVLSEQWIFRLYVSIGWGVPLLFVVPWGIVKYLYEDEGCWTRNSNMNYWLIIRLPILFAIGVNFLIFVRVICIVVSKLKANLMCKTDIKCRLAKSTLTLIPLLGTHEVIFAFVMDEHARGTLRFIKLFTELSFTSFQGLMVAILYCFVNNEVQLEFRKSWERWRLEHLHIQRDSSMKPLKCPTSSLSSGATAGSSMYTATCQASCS

Structure (SMILES)	EC50 [nM]
O=C(O)c1ccc2nc(CN3C4CCC3CN(c3cccc(OCc5ccncc5)n3)C4)n(C[C@@H]3CCO3)c2c1 [Compound 2-5, 3-[(2S)-oxetan-2-ylmethyl]-2-({3-[6-(pyridin-4-ylmethoxy)pyridin-2-yl]-3,8-diazabicyclo[3.2.1]octan-8-yl}methyl)-1,3-benzodiazole-5-carboxylic acid]	> 4
N#Cc1ccc(COc2cccc(N3CC4CCC(C3)N4Cc3nc4ccc(C(=O)O)cc4n3C[C@@H]3CCO3)c2)c(F)c1 [Compound 2-18, 2-((−3-(3-((4-cyano-2-fluorobenzyl)oxy)phenyl)-3,8-diazabicyclo[3.2.1]octan-8-yl)methyl)-1-(((S)-oxetan-2-yl)methyl)-1H-benzo[d]imidazole-6-carboxylic acid]	1.17
N#Cc1ccc(COc2cccc(C34CCN(Cc5nc6ccc(C(=O)O)cc6n5C[C@@H]5CCO5)CC3C4)c2)c(F)c1 (single isomer, unassigned) [Compound 1-9-A]	1.01
N#Cc1ccc(COc2cccc(N3CC4CN(Cc5nc6ccc(C(=O)O)cc6n5Cc5ncco5)CC4C3)n2)c(F)c1 (stereo not drawn) [Compound 2-26, 2-[(5-{6-[(4-cyano-2-fluorophenyl)methoxy]pyridin-2-yl}-hexahydropyrrolo[3,4-c]pyrrol-2-yl)methyl]-3-(1,3-oxazol-2-ylmethyl)-1,3-benzodiazole-5-carboxylic acid]	> 4
O=C(O)c1ccc2nc(CN3C4CCC3CN(c3cccc(OCc5ccc(C(F)(F)F)cc5F)n3)C4)n(C[C@@H]3CCO3)c2c1 [Compound 2-15, 2-((−3-(6-((2-fluoro-4-(trifluoromethyl)benzyl)oxy)pyridin-2-yl)-3,8-diazabicyclo[3.2.1]octan-8-yl)methyl)-1-(((S)-oxetan-2-yl)methyl)-1H-benzo[d]imidazole-6-carboxylic acid]	> 4
O=C(O)c1ccc2nc(CN3C4CCC3CN(c3cccnc3OCc3ccc(Cl)cc3F)C4)n(C[C@@H]3CCO3)c2c1 [Compound 2-17, 2-[(3-{2-[(4-chloro-2-fluorophenyl)methoxy]pyridin-3-yl}-3,8-diazabicyclo[3.2.1]octan-8-yl)methyl]-3-[(2S)-oxetan-2-ylmethyl]-1,3-benzodiazole-5-carboxylic acid]	> 4
N#Cc1ccc(COc2cccc(C34CCN(Cc5nc6ccc(C(=O)O)cc6n5C[C@@H]5CCO5)CC3C4)c2)c(F)c1 (single isomer, unassigned) [Compound 1-9-B]	1.05
N#Cc1ccc(COc2cccc(N3CC4CN(Cc5nc6ccc(C(=O)O)cc6n5Cc5cocn5)CC4C3)n2)c(F)c1 (stereo not drawn) [Compound 2-25, 2-[(5-{6-[(4-cyano-2-fluorophenyl)methoxy]pyridin-2-yl}-hexahydropyrrolo[3,4-c]pyrrol-2-yl)methyl]-3-(1,3-oxazol-4-ylmethyl)-1,3-benzodiazole-5-carboxylic acid]	1.7
N#Cc1ccc(COc2cccc(N3CC4CCC(C3)N4Cc3nc4ccc(C(=O)O)cc4n3Cc3ncco3)n2)c(F)c1 [Compound 2-12, 2-((−3-(6-((4-cyano-2-fluorobenzyl)oxy)pyridin-2-yl)-3,8-diazabicyclo[3.2.1]octan-8-yl)methyl)-1-(oxazol-2-ylmethyl)-1H-benzo[d]imidazole-6-carboxylic acid]	> 4
N#Cc1ccc(COc2cccc(N3CC4CCC(C3)N4Cc3nc4ccc(C(=O)O)cc4n3CC3CCOC3)n2)c(F)c1 (stereo not drawn) [Compound 2-11, 2-[(3-{6-[(4-cyano-2-fluorophenyl)methoxy]pyridin-2-yl}-3,8-diazabicyclo[3.2.1]octan-8-yl)methyl]-3-(oxolan-3-ylmethyl)-1,3-benzodiazole-5-carboxylic acid]	> 4
O=C(O)c1ccc2nc(CN3CC4CN(c5cccc(OCc6ccc(Cl)cc6F)n5)CC4C3)n(C[C@@H]3CCO3)c2c1 (stereo partly drawn) [Compound 2-27, 2-((5-(6-((4-chloro-2-fluorobenzyl)oxy)pyridin-2-yl)hexahydropyrrolo[3,4-c]pyrrol-2 (1H)-yl)methyl)-1-(((S)-oxetan-2-yl)methyl)-1H-benzo[d]imidazole-6-carboxylic acid]	> 4
N#Cc1ccc(COc2cccc(C34CCN(Cc5nc6ccc(C(=O)O)cc6n5C[C@@H]5CCO5)CC3C4)n2)cc1F (stereo partly drawn) [Compound 1-7, 2-((6-(6-((4-cyano-3-fluorobenzyl)oxy)pyridin-2-yl)-3-azabicyclo[4.1.0]heptan-3-yl)methyl)-1-(((S)-oxetan-2-yl)methyl)-1H-benzo[d]imidazole-6-carboxylic acid]	0.175
N#Cc1ccc(COc2cccc(N3C4CCC3CN(Cc3nc5ccc(C(=O)O)cc5n3C[C@@H]3CCO3)C4)n2)cc1 [Compound 2-38, 2-((8-(6-((4-cyanobenzyl)oxy)pyridin-2-yl)-3,8-diazabicyclo[3.2.1]octan-3-yl)methyl)-1-(((S)-oxetan-2-yl)methyl)-1H-benzo[d]imidazole-6-carboxylic acid]	0.458
O=C(O)c1ccc2nc(CN3C4CCC3CN(c3cccc(OCc5ccc(F)cc5F)n3)C4)n(C[C@@H]3CCO3)c2c1 [Compound 2-7, 2-((−3-(6-((2,4-difluorobenzyl)oxy)pyridin-2-yl)-3,8-diazabicyclo[3.2.1]octan-8-yl)methyl)-1-(((S)-oxetan-2-yl)methyl)-1H-benzo[d]imidazole-6-carboxylic acid]	> 4
O=C(O)c1ccc2nc(CN3CC4CCC(C3)N4c3cccc(OCc4ccncc4F)n3)n(C[C@@H]3CCO3)c2c1 [Compound 2-40, 2-((−8-(6-((3-fluoropyridin-4-yl)methoxy)pyridin-2-yl)-3,8-diazabicyclo[3.2.1]octan-3-yl)methyl)-1-(((S)-oxetan-2-yl)methyl)-1H-benzo[d]imidazole-6-carboxylic acid]	> 4
N#Cc1ccc(COc2ccnc(C34CCN(Cc5nc6ccc(C(=O)O)cc6n5C[C@@H]5CCO5)CC3C4)n2)c(F)c1 (stereo partly drawn) [Compound 1-11, 2-((6-(4-((4-cyano-2-fluorobenzyl)oxy)pyrimidin-2-yl)-3-azabicyclo[4.1.0]heptan-3-yl)methyl)-1-(((S)-oxetan-2-yl)methyl)-1H-benzo[d]imidazole-6-carboxylic acid]	0.079
N#Cc1ccc(COc2cccc(N3CC4CN(Cc5nc6ccc(C(=O)O)cc6n5CC5CCOC5)CC4C3)n2)c(F)c1 (stereo not drawn) [Compound 2-24, 2-[(5-{6-[(4-cyano-2-fluorophenyl)methoxy]pyridin-2-yl}-hexahydropyrrolo[3,4-c]pyrrol-2-yl)methyl]-3-(oxolan-3-ylmethyl)-1,3-benzodiazole-5-carboxylic acid]	3.05
N#Cc1ccc(COc2cccc(N3CC4CN(Cc5nc6ccc(C(=O)O)cc6n5CC5CCO5)CC4C3)n2)c(F)c1 (stereo not drawn) [Compound 2-21, 2-[(5-{6-[(4-cyano-2-fluorophenyl)methoxy]pyridin-2-yl}-hexahydropyrrolo[3,4-c]pyrrol-2-yl)methyl]-3-(oxetan-2-ylmethyl)-1,3-benzodiazole-5-carboxylic acid]	> 4
N#Cc1ccc(COc2ccnc(C34CCN(Cc5nc6ccc(C(=O)O)cc6n5C[C@@H]5CCO5)CC3C4)n2)c(F)c1 (single isomer, unassigned) [Compound 1-11-B]	0.017
O=C(O)c1ccc2nc(CN3CC4CCC(C3)N4c3cccc(OCc4ccccc4F)n3)n(C[C@@H]3CCO3)c2c1 [Compound 2-36, 2-((−8-(6-((2-fluorobenzyl)oxy)pyridin-2-yl)-3,8-diazabicyclo[3.2.1]octan-3-yl)methyl)-1-(((S)-oxetan-2-yl)methyl)-1H-benzo[d]imidazole-6-carboxylic acid]	> 4
O=C(O)c1ccc2nc(CN3C4CC3CN(c3cccc(OCc5ccc(Cl)cc5F)n3)C4)n(C[C@@H]3CCO3)c2c1 [Compound 2-3, 2-((−3-(6-((4-chloro-2-fluorobenzyl)oxy)pyridin-2-yl)-3,6-diazabicyclo[3.1.1]heptan-6-yl)methyl)-1-(((S)-oxetan-2-yl)methyl)-1H-benzo[d]imidazole-6-carboxylic acid]	> 4
N#Cc1ccc(COc2ncccc2N2CC3CCC(C2)N3Cc2nc3ccc(C(=O)O)cc3n2C[C@@H]2CCO2)c(F)c1 [Compound 2-16, 2-[(3-{2-[(4-cyano-2-fluorophenyl)methoxy]pyridin-3-yl}-3,8-diazabicyclo[3.2.1]octan-8-yl)methyl]-3-[(2S)-oxetan-2-ylmethyl]-1,3-benzodiazole-5-carboxylic acid]	> 4
N#Cc1ccc(COc2ccnc(C34CCN(Cc5nc6ccc(C(=O)O)cc6n5C[C@@H]5CCO5)CC3C4)c2)c(F)c1 (single isomer, unassigned) [Compound 1-2-A]	> 4
N#Cc1ccc(COc2cccc(N3C4CCC3CN(Cc3nc5ccc(C(=O)O)cc5n3Cc3ncco3)C4)n2)c(F)c1 [Compound 2-31, 2-[(8-{6-[(4-cyano-2-fluorophenyl)methoxy]pyridin-2-yl}-3,8-diazabicyclo[3.2.1]octan-3-yl)methyl]-3-(1,3-oxazol-2-ylmethyl)-1,3-benzodiazole-5-carboxylic acid]	1.5
